Assay results taken from EP4621052A1, “IMMUNE CELL TARGETING PROBE, PRE-TARGETING RECOGNITION AND DRUG DELIVERY SYSTEM BASED ON PROBE, AND USE THEREOF” (Guangdong Keyangle Life Technology Co., Ltd., priority 2022, dated 2024).
Blank lines part the entries; values can stand above or below the molecule they belong to. Where no end group is shown, it is not given here.

Assays:
[1] = test system: peripheral blood of Kunming mice; experiment: labeling of peripheral blood with targeting polypeptide with pre-targeting binding handle, flow cytometry; assay type: cell-based; details: 10 µM peptide; for staining of cell populations in peripheral blood: 4°C 30 min, Strep-PE, CD19 and CD5 antibodies; for identity of the labeled B lymphocyte population: CD19 and CD5 counterstain
Excerpt: (2) Labeling of peripheral blood with the targeting polypeptide connected with pre-targeting binding handle: Healthy Kunming mice were taken and killed by cervical dislocation, and their peripheral blood was collected using anticoagulant blood vessels.
KS24 and KS29 were biotinylated according to the method described in (1) to obtain targeting polypeptides bio-KS24 and bio-KS29 connected with pre-targeting binding handle. The targeting polypeptides bio-KS24 and bio-KS29 each connected with the pre-targeting binding handle were added to 50 µL of peripheral blood samples, respectively, to be diluted to 100 µL with 1×PBS so that the concentration of the targeting polypeptides bio-KS24 and bio-KS29 connected with the pre-targeting binding handle in the solution was 10 µM, and the mixture was incubated at 4°C for 30 min. After the incubation, red blood cells in the peripheral blood were lysed using a conventional red blood cell lysis reagent in the art according to the instructions, washed twice with 1×PBS, resuspended with 100 µL of 1×PBS, and 1 µL/tube of phycoerythrin-labeled Strep-PE, 0.5 µL/tube of anti-mouse CD19 Antibody, and 0.5 µL/tube of FITC anti-mouse CD5 Antibody were added, and incubated at room temperature for 1 h. After the incubation, the cells were washed twice with 1× PBS and analyzed by flow cytometry.

peritoneal macrophages = experiment: in vivo labeling of peritoneal macrophages by targeting polypeptide with pre-targeting binding handle; parameters: species or system Kunming mice; details: 10 µM peptide premixed with Strep-PE, intraperitoneal injection, 4 h; F4/80-APC counterstain; flow cytometry
Description: • (1) In vivo labeling of peritoneal macrophages by targeting polypeptides connected with pre-targeting binding handles: In this example, the targeting polypeptides KS24 (amino acid sequence: […] (SEQ ID NO: 29)) and KS29 (amino acid sequence: […] (SEQ ID NO: 30)) were used. The pre-targeting binding handle was biotin. The biotinylation steps of the targeting polypeptides were as follows: the biotinylation of targeting polypeptides was carried out by adding biotinylated amino acids during peptide synthesis, so that the biotinylation sites can be controlled. Two biotinylated targeting polypeptides (bio-KS24 and bio-KS29) were respectively connected to phycoerythrin-labeled streptavidin (Strep-PE), where streptavidin served as a linker, and the phycoerythrin was connected through the specific binding of the linker to the pre-targeting binding handle (biotin-avidin system) to the targeting polypeptide for immune cell labeling and tracing. The mixtures were incubated together at room temperature for 1 h. In a 100 µL reaction system, the final concentration of the biotinylated targeting polypeptide was 10 µM, and 1 µL of Strep-PE was added. After the incubation, two groups of healthy female Kunming mice (3 mice in each group) were selected. […] After incubation, the cells were washed twice with 1× PBS and analyzed using flow cytometry. […]

[2] = test system: macrophages on the mesentery; experiment: pre-targeting delivery after intraperitoneal injection, mesentery, fluorescence microscopy; assay type: in vivo, Kunming mice; details: peptide 10 µM intraperitoneal, Strep-PE intraperitoneal 3 h later, killed 1 h later; F4/80-APC counterstain
Description: (§1) The specific experimental steps are as follows: Biotinylated targeting polypeptides bio-KS24 and bio-KS29 (i.e., targeting polypeptides connected with the pre-targeting binding handles) were prepared according to the steps described in the above examples.
(§2) The targeting polypeptides (bio-KS24 and bio-KS29) connected with the pre-targeting binding handles were prepared, respectively, with a final concentration of 10 µM and a final volume of 100 µL. Then, the mixture was diluted with PBS to 4 times of the original volume (i.e., 100 µL of the mixed system was diluted to 400 µL), and then injected into Kunming mice intraperitoneally, with an injection volume of 400 µL per mouse. After the injection of the targeted polypeptide for 3 h, 5 µL Trep-PE was diluted into 100 µL of 1× PBS and intraperitoneally injected into mice. The mice were killed 1 h after the injection, and free peritoneal cells and mesentery were extracted and counterstained with F4/80-APC antibody. After incubation, the cells were washed twice with 1× PBS and observed under a fluorescence microscope.
(§3) Untreated healthy mice were used as controls.

[3] = test system: peritoneal free macrophages; experiment: pre-targeting delivery after intraperitoneal injection, free peritoneal cells, fluorescence microscopy; assay type: in vivo, Kunming mice; details: peptide 10 µM intraperitoneal, Strep-PE intraperitoneal 3 h later, killed 1 h later; F4/80-APC counterstain
Description: as §1, §2, §3

[4] = target: T1, Peptide segment KL19 (KEQPDPGAVAAAAILRAIL); experiment: indirect ELISA, peptide as coating antigen
T1 construct: Synthetic peptide used as ELISA coating antigen; Derived from the C-terminal fragment of Triokinase/FMN cyclase, with an added N-terminal K
T1 peptide: KEQPDPGAVAAAAILRAIL

identity of the labeled B lymphocyte population [1]: CD5^+ B lymphocytes
Molecule: bio-KS24: biotinylated targeting polypeptide KS24, KEQPDPGAVAAAAILRAILEVLQS (SEQ ID NO: 29) (also: biotinylated, site not given here)
staining of cell populations in peripheral blood [1]: can stain a subset of B lymphocyte population and granulocyte population | recognition of macrophages in peritoneal cells (peritoneal macrophages): can selectively recognize macrophages in peritoneal cells of mice | pre-labeling of macrophages on the mesentery [2]: could pre-label macrophages on the mesentery | pre-labeling of free peritoneal macrophages [3]: could pre-label macrophages

identity of the labeled B lymphocyte population [1]: CD5^+ B lymphocytes
Molecule: bio-KS29: biotinylated targeting polypeptide KS29, KSSARLEQPDPGAVAAAAILRAILEVLQS (SEQ ID NO: 30) (also: biotinylated, site not given here)
staining of cell populations in peripheral blood [1]: can stain a subset of B lymphocyte population and granulocyte population | recognition of macrophages in peritoneal cells (peritoneal macrophages): can selectively recognize macrophages in peritoneal cells of mice | pre-labeling of macrophages on the mesentery [2]: could pre-label macrophages on the mesentery | pre-labeling of free peritoneal macrophages [3]: could pre-label macrophages

binding result [4]: no binding
B1: KA-001 monoclonal antibody (antibody, mouse IgG1, kappa, V domains shown)
VH: DVKIVESGGGLVKLGGSLKLSCAASGFTFSRNYMSWVRQTPEKRLELVAGINNNGGSTYYPDTVKGRFTISRDNAKNTLYLQMSSLRSEDTAIYYCAKRGFITTVGAMDYWGQGISVTVSS
VL: DIQMTQTTFSLSASLGDRVTISCRASQDISNYLNWYQQIPDGTVKLLIYYTSRLHSGVPSRFSGSGSGTDYSLTISNLEQEDIATYFCQQVHTLPYTFGGGTKLEMKR
